{"source": "ChEMBL document CHEMBL1201862", "about": "“PubChem BioAssay data set” (2004)", "test_in_all_cases": "DTP human tumour cell line panel, 48 h", "key": {"Hs-578T": {"tested_on": "Hs-578T"}, "DMS-114": {"tested_on": "DMS-114"}, "DMS-273": {"tested_on": "DMS-273"}, "HOP-18": {"tested_on": "HOP-18"}, "KM-20L2": {"tested_on": "KM-20L2"}, "M19-MEL": {"tested_on": "M19-MEL"}, "SNB-78": {"tested_on": "SNB-78"}, "XF498": {"tested_on": "XF498"}, "RXF 631": {"tested_on": "RXF 631"}}, "note": "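Step 1: Grow cells in 96-well plates. Step 2: Expose to compound for 48 hours at 5 concentrations. Step 3: Interpolate endpoints linearly; if unreached, use highest concentration. Here, GI50 denotes the concentration required for 50% inhibition of growth.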 The source made the active and inactive calls. Rule as the data show it: active = GI50 up to about 1.1 µM and inactive = higher.", "data": [{"smiles": "O=c1c2cc(O)c(O)cc2oc2cc(O)c(C3OC(CO)C(O)C(O)C3O)c(O)c12", "note": "(stereo not given)", "values": [{"measurement": "GI50", "setting": "Hs-578T", "value": "> 100 µM (inactive)"}]}, {"smiles": "Nc1nncs1", "values": [{"measurement": "GI50", "setting": "DMS-114", "value": "1960 µM (inactive)"}, {"measurement": "GI50", "setting": "DMS-273", "value": "450 µM (inactive)"}, {"measurement": "GI50", "setting": "HOP-18", "value": "3030 µM (inactive)"}, {"measurement": "GI50", "setting": "Hs-578T", "value": "1620 µM (inactive)"}, {"measurement": "GI50", "setting": "KM-20L2", "value": "301 µM (inactive)"}, {"measurement": "GI50", "setting": "M19-MEL", "value": "1090 µM (inactive)"}, {"measurement": "GI50", "setting": "SNB-78", "value": "3240 µM (inactive)"}, {"measurement": "GI50", "setting": "XF498", "value": "879 µM (inactive)"}]}, {"smiles": "CC1C(=O)C(C)C(c2ccco2)N(N=O)C1c1ccco1", "note": "(stereo not given)", "values": [{"measurement": "GI50", "setting": "DMS-273", "value": "> 100 µM (inactive)"}, {"measurement": "GI50", "setting": "HOP-18", "value": "> 67.1 µM (inactive)"}, {"measurement": "GI50", "setting": "KM-20L2", "value": "> 100 µM (inactive)"}, {"measurement": "GI50", "setting": "M19-MEL", "value": "> 100 µM (inactive)"}, {"measurement": "GI50", "setting": "SNB-78", "value": "> 100 µM (inactive)"}, {"measurement": "GI50", "setting": "XF498", "value": "< 0.01 µM (active)"}]}, {"smiles": "CCOc1ccccc1N1C(=O)C(=O)C(c2nc3ccccc3o2)/C(=N\\N)C1=O", "note": "(stereo not given)", "values": [{"measurement": "GI50", "setting": "DMS-114", "value": "> 100 µM (inactive)"}, {"measurement": "GI50", "setting": "DMS-273", "value": "> 100 µM (inactive)"}, {"measurement": "GI50", "setting": "KM-20L2", "value": "> 100 µM (inactive)"}, {"measurement": "GI50", "setting": "M19-MEL", "value": "> 100 µM (inactive)"}, {"measurement": "GI50", "setting": "SNB-78", "value": "> 100 µM (inactive)"}]}, {"smiles": "COc1cccc(/C=C2\\S/C(=N/Nc3nc(-c4ccc([N+](=O)[O-])cc4)cs3)NC2=O)c1O", "values": [{"measurement": "GI50", "setting": "Hs-578T", "value": "12.3 µM (inactive)"}]}, {"smiles": "O=C(O)c1cc2ccccc2c(/N=N/c2ccc(S(=O)(=O)O)cc2)c1O", "values": [{"measurement": "GI50", "setting": "Hs-578T", "value": "> 100 µM (inactive)"}]}, {"smiles": "COc1ccc(C(N)=O)cc1/N=N/N(C)C", "values": [{"measurement": "GI50", "setting": "DMS-273", "value": "> 100 µM (inactive)"}, {"measurement": "GI50", "setting": "HOP-18", "value": "> 100 µM (inactive)"}, {"measurement": "GI50", "setting": "KM-20L2", "value": "> 100 µM (inactive)"}, {"measurement": "GI50", "setting": "M19-MEL", "value": "> 100 µM (inactive)"}]}, {"smiles": "O=C1C=CC(CC(=O)c2ccc3ccccc3c2)O1", "note": "(stereo not given)", "values": [{"measurement": "GI50", "setting": "DMS-273", "value": "20 µM (inactive)"}, {"measurement": "GI50", "setting": "HOP-18", "value": "35 µM (inactive)"}, {"measurement": "GI50", "setting": "KM-20L2", "value": "20.5 µM (inactive)"}, {"measurement": "GI50", "setting": "M19-MEL", "value": "43.5 µM (inactive)"}, {"measurement": "GI50", "setting": "SNB-78", "value": "34.9 µM (inactive)"}, {"measurement": "GI50", "setting": "XF498", "value": "66.5 µM (inactive)"}]}, {"smiles": "CC1=C2C(O)C(C(C)C(=O)N(C)C)CCC2(C)C=CC1=O", "note": "(stereo not given)", "values": [{"measurement": "GI50", "setting": "DMS-114", "value": "> 100 µM (inactive)"}, {"measurement": "GI50", "setting": "DMS-273", "value": "> 100 µM (inactive)"}, {"measurement": "GI50", "setting": "HOP-18", "value": "> 100 µM (inactive)"}, {"measurement": "GI50", "setting": "KM-20L2", "value": "> 100 µM (inactive)"}, {"measurement": "GI50", "setting": "M19-MEL", "value": "> 100 µM (inactive)"}, {"measurement": "GI50", "setting": "SNB-78", "value": "> 100 µM (inactive)"}, {"measurement": "GI50", "setting": "XF498", "value": "> 100 µM (inactive)"}]}, {"smiles": "Cc1ccc(Nc2nc3ccccc3c(=O)n2N)cc1", "values": [{"measurement": "GI50", "setting": "Hs-578T", "value": "> 100 µM (inactive)"}]}, {"smiles": "O=c1[nH]cnc(NC2C=C(CO)C(O)C2O)c1[N+](=O)[O-]", "note": "(stereo not given)", "values": [{"measurement": "GI50", "setting": "DMS-114", "value": "> 51.3 µM (inactive)"}, {"measurement": "GI50", "setting": "DMS-273", "value": "> 47.2 µM (inactive)"}, {"measurement": "GI50", "setting": "HOP-18", "value": "> 100 µM (inactive)"}, {"measurement": "GI50", "setting": "KM-20L2", "value": "> 100 µM (inactive)"}, {"measurement": "GI50", "setting": "M19-MEL", "value": "> 76.6 µM (inactive)"}, {"measurement": "GI50", "setting": "SNB-78", "value": "> 100 µM (inactive)"}, {"measurement": "GI50", "setting": "XF498", "value": "> 100 µM (inactive)"}]}, {"smiles": "CCOC(=O)CCN1C(=O)c2c(NC(=O)C(=O)O)cccc2S1(=O)=O", "values": [{"measurement": "GI50", "setting": "Hs-578T", "value": "> 100 µM (inactive)"}]}, {"smiles": "CC1(C=O)C(=O)CCC2(C)C3CC(=O)OC3CCC12", "note": "(stereo not given)", "values": [{"measurement": "GI50", "setting": "DMS-114", "value": "> 100 µM (inactive)"}, {"measurement": "GI50", "setting": "DMS-273", "value": "> 100 µM (inactive)"}, {"measurement": "GI50", "setting": "HOP-18", "value": "> 100 µM (inactive)"}, {"measurement": "GI50", "setting": "KM-20L2", "value": "> 100 µM (inactive)"}, {"measurement": "GI50", "setting": "M19-MEL", "value": "> 100 µM (inactive)"}]}, {"smiles": "Cc1cc(C)c2c(=O)n(CN3CCC(O)(c4ccccc4)CC3)sc2n1", "values": [{"measurement": "GI50", "setting": "Hs-578T", "value": "40 µM (inactive)"}]}, {"smiles": "CCC(=O)N1C(=S)SC[C@H]1C(=O)OC", "values": [{"measurement": "GI50", "setting": "DMS-114", "value": "> 100 µM (inactive)"}, {"measurement": "GI50", "setting": "DMS-273", "value": "> 100 µM (inactive)"}, {"measurement": "GI50", "setting": "HOP-18", "value": "> 100 µM (inactive)"}, {"measurement": "GI50", "setting": "KM-20L2", "value": "> 100 µM (inactive)"}, {"measurement": "GI50", "setting": "M19-MEL", "value": "> 100 µM (inactive)"}, {"measurement": "GI50", "setting": "SNB-78", "value": "> 100 µM (inactive)"}, {"measurement": "GI50", "setting": "XF498", "value": "7.4 µM (inactive)"}]}, {"smiles": "CSC1NNC2(C(=O)N1)c1ccccc1-c1ccccc12", "note": "(stereo not given)", "values": [{"measurement": "GI50", "setting": "Hs-578T", "value": "> 10 µM (inactive)"}]}, {"smiles": "COc1cc2cccc(N)c2cc1OC", "values": [{"measurement": "GI50", "setting": "Hs-578T", "value": "> 100 µM (inactive)"}]}, {"smiles": "COC(=O)C1C(=O)CC2CCCCC21", "note": "(stereo not given)", "values": [{"measurement": "GI50", "setting": "DMS-114", "value": "> 100 µM (inactive)"}, {"measurement": "GI50", "setting": "DMS-273", "value": "> 100 µM (inactive)"}, {"measurement": "GI50", "setting": "KM-20L2", "value": "> 100 µM (inactive)"}, {"measurement": "GI50", "setting": "M19-MEL", "value": "> 100 µM (inactive)"}, {"measurement": "GI50", "setting": "SNB-78", "value": "> 100 µM (inactive)"}]}, {"smiles": "CSC1=C(C#N)C(=S)N=C(N)C1C(=O)Nc1ccc(C)cc1", "note": "(stereo not given)", "values": [{"measurement": "GI50", "setting": "Hs-578T", "value": "> 100 µM (inactive)"}]}, {"smiles": "Cc1nc(Cl)c(C)c(Cl)n1", "values": [{"measurement": "GI50", "setting": "Hs-578T", "value": "> 75.2 µM (inactive)"}]}, {"smiles": "O=C(O)C1CCCCC1C(=O)Nc1nc2ccccc2[nH]1", "note": "(stereo not given)", "values": [{"measurement": "GI50", "setting": "Hs-578T", "value": "> 100 µM (inactive)"}]}, {"smiles": "Cc1ccccc1NC(=O)C1C(=O)N(c2ccccc2C)C(=O)/C1=N\\N", "note": "(stereo not given)", "values": [{"measurement": "GI50", "setting": "DMS-114", "value": "> 100 µM (inactive)"}, {"measurement": "GI50", "setting": "HOP-18", "value": "> 100 µM (inactive)"}, {"measurement": "GI50", "setting": "KM-20L2", "value": "> 100 µM (inactive)"}, {"measurement": "GI50", "setting": "M19-MEL", "value": "> 100 µM (inactive)"}, {"measurement": "GI50", "setting": "RXF 631", "value": "> 100 µM (inactive)"}, {"measurement": "GI50", "setting": "SNB-78", "value": "> 100 µM (inactive)"}]}, {"smiles": "O=[N+]([O-])/C(C(Cl)=C(Cl)Cl)=C(/Br)SCc1ccccc1", "values": [{"measurement": "GI50", "setting": "Hs-578T", "value": "11.7 µM (inactive)"}]}, {"smiles": "O=C(O)c1ccc(C2COc3ccc(Cl)cc3C2)cc1", "note": "(stereo not given)", "values": [{"measurement": "GI50", "setting": "DMS-114", "value": "> 100 µM (inactive)"}, {"measurement": "GI50", "setting": "DMS-273", "value": "> 100 µM (inactive)"}, {"measurement": "GI50", "setting": "HOP-18", "value": "> 100 µM (inactive)"}, {"measurement": "GI50", "setting": "KM-20L2", "value": "> 100 µM (inactive)"}, {"measurement": "GI50", "setting": "M19-MEL", "value": "> 100 µM (inactive)"}, {"measurement": "GI50", "setting": "SNB-78", "value": "> 100 µM (inactive)"}, {"measurement": "GI50", "setting": "XF498", "value": "> 100 µM (inactive)"}]}]}
